Results: patent US20020039567A1, “Methods of treating bone or cartilage conditions by the administration of creatine” (priority 1998, published 2002)

Assays:
embryonic rat femora = test: Embryonic rat femora wet weight in organ culture
Protocol: The rats were sacrificed on the 17th to 18th day of pregnancy. The embryos were aseptically removed from the uterus, and both femora were carefully dissected free into sterile TBSS under the stereo-microscope. Organ-culture of the rudiments was performed in 10 cm^2 plastic culture dishes. A Teflon carrier with a nylon mesh (20 μm pore size) was mounted in the dish, keeping the explants floating and ensuring optimal gas exchange and nutritional conditions. The right and the left femora from each animal were randomly assigned to the experimental or control group. The control groups were kept in 3 ml B with 50 μg/ml ascorbate. In the experimental group, the growth medium was supplemented with either 10 mM creatine, 20 mM creatine, 1 mM GPA, 5 mM GPA, or 10 mM GPA. The growth medium was renewed every second day until day 10. Culture was carried out at 37.5° C. and in a 5% CO2 atmosphere. At 10 days, the wet weight of each femora was determined on a microbalance. The result of each experimental femora was expressed relative to its collateral control. For the histological evaluation, the femora as fixed in 4% formaldehyde, dehydrated, and embedded in methylmethacrylate. The 6 μm sections were stained by Pentachrome-Movat.

[1] = test system: osteoblasts (monolayer culture); test: Metabolic activity (MTT), monolayer osteoblast cell culture; assay type: cell-based, rat; settings: for metabolic activity measured by the MTT reaction / MTT reaction: preliminary
Protocol: This isolation technique is based on the ability of osteoblasts to migrate from bone onto a substratum. Parietal and frontal calvariae (4 per animal) were aseptically explanted from 6 day-old IcoIbm rats. The calvariae were placed in Tyrode's balanced salt solution, calcium and magnesium free (TESS). The periosteum was enzymatically removed with 0.05% trypsin and 0.02% collagenase A (0.76 U/mg) dissolved in TBSS (40 calvaria/20 ml). The calvariae were shaken for 70 minutes in a waterbath at 37° C. They were washed with TESS and then transferred to 60 mm culture dishes (40 calvariae/dish) containing 5 ml of 0.02% collagenase A (0.76 U/mg) in culture medium BGJb Fitton-Jackson modification and placed in the incubator for 4 hours. The calvariae were then washed with culture medium B supplemented with 10% foetal calf serum (FCS). The calvariae were transferred into 60 mm culture dishes (4 frontal and 4 parietal/dish). The growth medium supplemented with 10% FCS and 50 μg/ml ascorbate was completely changed every 48 hours. The culture was kept for 3 weeks.
After 3 weeks the migrated cells were harvested. The dish was washed with TESS, and 5 ml of TESS containing 0.05% trypsin and 0.02% collagenase A (0.76 U/mg) was added. After 1 hour in the incubator, the dish was washed with culture medium BGJb supplemented with 10% FCS. The dishes containing the calvariae and cells were rinsed with serum containing media BGJb. The cells obtained were filtered through a 40 μm nylon mesh to remove bone debris and cell aggregates. The suspended cells were centrifuged at 600 g for 5 minutes. The cell pellet was resuspended in serum containing medium BGJb and centrifuged. The viability of the resuspended cells was examined by the dye exclusion of 0.4% trypan blue, and the cells were counted in a haeinocytometer. The inoculation densities were 2·10^5/10 cm^2 for monolayer and 2·10^5/30 μl for micromasses. The micromass cultures were kept for 1 hour in the incubator before 2 ml growth medium was added.
All the cultures were kept at 37° C. in a humidified atmosphere of 5% CO2, 95% air. All culture media were supplemented with 50 μg/ml ascorbate. To analyze the collagen types, 60 μg/ml beta-aminopropionitrile (beta-APN) was added to the culture medium. During cell isolation and inoculation, no ascorbate was used to increase plating efficiency. No antibiotics and no beta-glycerophosphate were added. The media were completely changed every 48 hours (60 mm culture dish 5 ml; 35 mm culture dish 2 ml).
The Böhringer Cell Proliferation Kit I (MTT) was used for the assay, but we used a different solvent to dissolve the MTT crystals.
Originally, Mosmann, 1983 described the general principle involved in the detection of cell growth/cell death as indicated by the conversion of the tetrazolium salt (MTT) to the colored formazan by mitochondrial dehydrogenases. The concentration of this can then be measured spectrophotoinetrically.
1. MTT Stock (5 mg/ml in sterile PBS) from Böhringer was diluted […] with complete growth medium and sterile filtering.
2. The cells were incubated in 2 ml/10 cm^2 MTT solution at 37° C. for 3 hours.
3. The supernatant was carefully removed.
4. 4 ml/10 cm^2 dimethylsulphoxide (DMSO) was added.
5. The dishes were placed on a shaker until the crystals were completely dissolved.
6. The absorbance of the supernatant (3 aliquots/dish) was read at 550 nm versus DMSO.
If the absorbance was higher than 1, the samples were diluted with DMSO.
The mean value and the standard deviation consisted of n independent experiments. The values for the individual experiments were gained from the mean of 3 aliquots of the same dish. To compare the treatment, contrasts analysis of variance models were evaluated.

Compound	wet weight of femora (FIG. 5) (embryonic rat femora; 10 mM creatine vs control, p<0.0005)	wet weight of femora (FIG. 5) (embryonic rat femora; 20 mM creatine vs control, p<0.001)	metabolic activity (MTT) (FIG. 2) ([1]; 10 mM and 20 mM creatine vs control, 1 week)	metabolic activity (MTT) (FIG. 2) ([1]; 10 mM creatine vs control, 2 weeks, p<0.015)	metabolic activity (MTT) (FIG. 2) ([1]; 10 mM creatine vs control, 3 weeks, p<0.001)	metabolic activity (MTT) (FIG. 2) ([1]; 20 mM creatine vs control, 2 weeks, p<0.0025)	metabolic activity (MTT) (FIG. 2) ([1]; 20 mM creatine vs control, 3 weeks, p<0.001)	metabolic activity measured by the MTT reaction ([1]; 2 weeks, creatine groups vs control)	MTT reaction ([1]; 3 weeks, creatine vs control)	wet weight of femora (FIG. 5) (embryonic rat femora; 1 mM GPA vs control)	wet weight of femora (FIG. 5) (embryonic rat femora; 5 mM GPA vs control, p<0.0005)	wet weight of femora (FIG. 5) (embryonic rat femora; 10 mM GPA vs control, p<0.015)	effects on the metabolism and the viability of the cells ([1]; GPA-treated osteoblasts, summary)	metabolic activity measured by the MTT reaction ([1]; 2 weeks, 10 mM GPA vs control)	MTT reaction ([1]; 3 weeks, 1 mM or 5 mM GPA vs control)	MTT reaction ([1]; 3 weeks, 10 mM GPA vs control)
CN(CC(=O)O)C(=N)N [creatine]	control (FIG. 5) had significantly lower wet weights than	control (FIG. 5) had significantly lower wet weights than	all groups were similar	control group was significantly lower than the 10 mM creatine	significantly higher than the control group	control group was significantly lower than the 10 mM creatine and the 20 mM creatine	significantly higher than the control group	slightly stimulated	stimulated the MTT reaction							
N=C(N)NCCC(=O)O [GPA, beta-guanidinopropionic acid]										not significantly different from the control	control (FIG. 5) had significantly lower wet weights than	control (FIG. 5) had significantly lower wet weights than	adverse effects on both the metabolism and the viability of the cells	lower values than the control	lower values than the control	comparable to the control
